Compound `COc1cc2c(cc1OC)C(=O)C(CC1CCN(Cc3ccccc3)CC1)C2.Cl` (stereo not drawn) has a solubility (mole fraction) (in DMF, 278.15 K) of 0.00119, a solubility (mole fraction) (in DMF, 283.15 K) of 0.00135 and a solubility (mole fraction) (in DMF, 288.15 K) of 0.00152. It also gave a solubility (mole fraction) (in DMF, 293.15 K) of 0.00173, a solubility (mole fraction) (in DMF, 298.15 K) of 0.00196 and a solubility (mole fraction) (in DMF, 303.15 K) of 0.00222. It also gave a solubility (mole fraction) (in DMF, 308.15 K) of 0.00251, a solubility (mole fraction) (in DMF, 313.15 K) of 0.00286 and a solubility (mole fraction) (in DMF, 318.15 K) of 0.00325. For the same compound, the solubility (mole fraction) (in DMF, 323.15 K) was 0.00368, the solubility (mole fraction) (in DMF, 328.15 K) was 0.00418 and the solubility (mole fraction) (in DMF, 333.15 K) was 0.00476. It also gave a solubility (mole fraction) (in ethanol, 278.15 K) of 0.000291, a solubility (mole fraction) (in ethanol, 283.15 K) of 0.000379 and a solubility (mole fraction) (in ethanol, 288.15 K) of 0.000484. The solubility (mole fraction) (in ethanol, 293.15 K) was 0.000609, the solubility (mole fraction) (in ethanol, 298.15 K) was 0.000768 and the solubility (mole fraction) (in ethanol, 303.15 K) was 0.000951. The solubility (mole fraction) (in ethanol, 308.15 K) was 0.00118, the solubility (mole fraction) (in ethanol, 313.15 K) was 0.00145 and the solubility (mole fraction) (in ethanol, 318.15 K) was 0.00177. It also gave a solubility (mole fraction) (in ethanol, 323.15 K) of 0.00215, a solubility (mole fraction) (in ethanol, 328.15 K) of 0.00259 and a solubility (mole fraction) (in ethanol, 333.15 K) of 0.00308. It also gave a solubility (mole fraction) (in methanol, 278.15 K) of 0.00167, a solubility (mole fraction) (in methanol, 283.15 K) of 0.00222 and a solubility (mole fraction) (in methanol, 288.15 K) of 0.00287. The solubility (mole fraction) (in methanol, 293.15 K) was 0.00375, the solubility (mole fraction) (in methanol, 298.15 K) was 0.00483 and the solubility (mole fraction) (in methanol, 303.15 K) was 0.00636. For the same compound, the solubility (mole fraction) (in methanol, 308.15 K) was 0.00803, the solubility (mole fraction) (in methanol, 313.15 K) was 0.0105 and the solubility (mole fraction) (in methanol, 318.15 K) was 0.0133. It also gave a solubility (mole fraction) (in methanol, 323.15 K) of 0.017, a solubility (mole fraction) (in methanol, 328.15 K) of 0.0216 and a solubility (mole fraction) (in methanol, 333.15 K) of 0.0277. For the same compound, the solubility (mole fraction) (in n-propanol, 278.15 K) was 0.000112, the solubility (mole fraction) (in n-propanol, 283.15 K) was 0.000153 and the solubility (mole fraction) (in n-propanol, 288.15 K) was 0.000214. The solubility (mole fraction) (in n-propanol, 293.15 K) was 0.000301, the solubility (mole fraction) (in n-propanol, 298.15 K) was 0.000404 and the solubility (mole fraction) (in n-propanol, 303.15 K) was 0.000543. The solubility (mole fraction) (in n-propanol, 308.15 K) was 0.000743, the solubility (mole fraction) (in n-propanol, 313.15 K) was 0.00102 and the solubility (mole fraction) (in n-propanol, 318.15 K) was 0.00133. The solubility (mole fraction) (in n-propanol, 323.15 K) was 0.0018, the solubility (mole fraction) (in n-propanol, 328.15 K) was 0.00241 and the solubility (mole fraction) (in n-propanol, 333.15 K) was 0.00321.

From BigSolDB 2.1
